Data taken from patent US20210137945A1, “METHOD FOR TREATING A CANCER ASSOCIATED WITH THE ACTIVATION OF GALECTIN-1” (TRINEO BIOTECHNOLOGY CO. LTD, priority 2019, published 2021).
One block for each compound: values may come before it.

How the values were obtained:
Type in all cases: cell-based
[1] = test system: myeloma ARH-77 cells; assay: MTT assay of myeloma ARH-77 cells treated with chemotherapeutic drugs alone or combined; conditions: for IC50: ARH-77 cells, chemotherapeutic agent alone (control)
Method: (§1) Ovarian cancer cell ES-2 and myeloma cell line ARH-77 were used in the present disclosure. Cells was cultured and maintained in Dulbecco's modified Eagle media (DMEM) supplemented with 10% fetal bovine serum (FBS), 100 IU/ml penicillin, […] streptomycin, 2 mM glutamine, non-essential amino acids and sodium pyruvate in 5% CO2 at 37° C. Cells were grown and maintained in Petri dishes (each was 10 cm in diameter) until they reached 80% confluence, and then were subject to cell passages. Briefly, cells were first washed with phosphate buffer solution (PBS, 3 ml) once, then treated with 0.05% Trypsin/0.025% EDTA solution (1 mL) for 5 min so that the attached cells become suspended. The suspended cells were harvested and 2 mL fresh culture media were added therein to neutralize any remaining activity of trypsin. Cell density was adjusted by adding appropriate amounts of culture medium to the cell suspension, which was then used to seed the culture plates. The plates were then returned to the incubator, and cultured in accordance with the steps described above.
Cells were seeded in 96-well plates with a density of 3,000 cells/well and cultured in accordance with the procedures described above. On the day when cell activity analysis was to be conducted, cells were first treated with various concentrations of the triterpenoids of the present disclosure, imatinib or gefitinib for at least 48 hrs, before subjecting them to MTT assay.
(§2) 50 μL of the MTT stock solution (5 mg MTT dissolved in 1 ml of sterile PBS) was added to each well, and 50 μL of the MTT stock solution was added to 500 μL of medium alone and used as a negative control. Each sample was incubated at 37° C. for 4 hours. Aliquots (450 μl) from each sample were taken to a new well of 48-well culture plate, adding […], DMSO, mixing thoroughly using the pipette and reacted at 37° C. for 20 min and absorbance was measured at 570 nm.
Results are summarized in Tables 1 to 3, and FIGS. 3 and 4.
If no significance existed between the expected and observed values, the effect is termed“additivity (p>0.05)”. […] The expected value was determined by multiplying the survival rate of each drug in specific dose. The obtained value and value of each survival rate were measured by MMT assay (FIG. 3 and FIG. 4).

[2] = test system: ovarian cancer cells (i.e., ES-2 cells); assay: MTT assay of cell activity, ES-2 cells; conditions: treated at least 48 hrs
Method: as §1, with “The suspended cells were harvested and 2 mL fresh culture media were added therein to neutralize any remaining activity of trypsin. Cell density was adjusted by adding appropriate amounts of culture medium to the cell suspension, which was then used to seed the culture plates. The plates were then returned to the incubator, and cultured in accordance with the steps described above.” left out
as §2, with “Each sample was incubated at 37° C. for 4 hours.” left out
The effects of the TN-GL-01 composition of example 1.1 on ovarian cancer cells (i.e., ES-2 cells) were evaluated by MTT assay in accordance with procedures described in the “Material and Methods” section.

[3] = test system: galectin-1; assay: Western blot analysis of galectin-1 expression in ES-2 cells; conditions: western blot (FIG. 2)
Method: Samples were respectively subjected to SDS-PAGE, transferred to PVDF membranes. These blots were blocked with 5% nonfat milk powder in TBS-0.1% Tween-20 for 30 minutes, followed by incubation with primary antibodies at 4° C. overnight and then horseradish peroxidase-conjugated secondary antibodies (Amersham Biosciences, Piscataway). Imaging of bands was performed using Pierce ECL Western Blotting Substrate (Thermo Fisher Scientific) and ImageQuant LAS-4000 (GE Healthcare).
In this example, the effects of TN-GL-01 composition on the expression of galectin-1 in ERK (extracellular-signal-regulated kinase) pathway was investigated via western blot analysis. […] Thus, it was concluded that the present TN-GL-01 composition exerted its function through suppression of galectin-1.

SMILES: N.N.[Cl][Pt][Cl] [Cisplatin, cisplatin]
Cell survival rate of the single drug ([1]; ARH-77, Table 2, Cisplatin 3 μM alone): 0.65
Cell survival rate of the single drug ([1]; ARH-77, Table 3, Cisplatin 3 μM alone): 0.69

IC50 ([1]; Homo sapiens): 99 nM
SMILES: COc1cccc2c1C(=O)c1c(O)c3c(c(O)c1C2=O)C[C@@](O)(C(=O)CO)C[C@@H]3O[C@H]1C[C@H](N)[C@H](O)[C@H](C)O1 [Doxorubicin, doxorubicin]
Cell survival rate of the single drug ([1]; ARH-77, Table 2, Doxorubicin 100 nM alone): 0.58
Cell survival rate of the single drug ([1]; ARH-77, Table 3, Doxorubicin 250 nM alone): 0.66
Cell survival rate of the single drug ([1]; ARH-77, Table 3, Doxorubicin 500 nM alone): 0.66

IC50 [1]: 415 nM
SMILES: COc1cc([C@@H]2c3cc4c(cc3[C@@H](O[C@@H]3O[C@@H]5CO[C@@H](C)O[C@H]5[C@H](O)[C@H]3O)[C@H]3COC(=O)[C@H]23)OCO4)cc(OC)c1O [Etoposide, etoposide]

SMILES: C/C(=C/CC[C@@H](C)[C@H]1CC[C@@]2(C)C3=CC[C@H]4C(C)(C)C(=O)CC[C@]4(C)C3=CC[C@]12C)C(=O)O [GAS, ganoderic acid S]
50% inhibition of ES-2 cells (IC50) [2]: 58.3 µg/mL
expression of galectin-1 [3]: effective in suppressing the expression of galectin-1

SMILES: CC(=O)O[C@@H](C/C=C(\C)C(=O)O)[C@@H](C)[C@H]1C[C@H](OC(C)=O)[C@@]2(C)C3=CC[C@H]4C(C)(C)[C@H](OC(C)=O)CC[C@]4(C)C3=CC[C@]12C [GAT, ganoderic acid T]
50% inhibition of ES-2 cells (IC50) [2]: 24.5 µg/mL
expression of galectin-1 [3]: effective in suppressing the expression of galectin-1

SMILES: CC(=O)O[C@H]1C(=O)[C@@]2(C)[C@H]([C@H](OC(=O)c3ccccc3)[C@]3(O)C[C@H](OC(=O)[C@H](O)[C@@H](NC(=O)c4ccccc4)c4ccccc4)C(C)=C1C3(C)C)[C@]1(OC(C)=O)CO[C@@H]1C[C@@H]2O [Paclitaxel, paclitaxel]
Cell survival rate of the single drug ([1]; ARH-77, Table 2, Paclitaxel 62.5 nM alone): 0.68
Cell survival rate of the single drug ([1]; ARH-77, Table 2, Paclitaxel 125 nM alone): 0.50
Cell survival rate of the single drug ([1]; ARH-77, Table 3, Paclitaxel 40 μM alone): 0.65
